Data on 21 molecules can be found in patent US5985908A, “MCBI analogs of CC-1065 and the duocarmycins” (The Scripps Research Institute, priority 1998, dated 1999).

For series [1] the following is noted: pH 3; cited from earlier work.
The subject of series [2] is w794 DNA (SV40 DNA fragment, 144 bp). Description: DNA alkylation, thermally-induced strand cleavage of w794 DNA. It counts as biochemical. As to conditions: for selectivity and efficiency of DNA alkylation, unnatural enantiomers compared: 72 hours, pairwise comparison; for concentration of detectable DNA alkylation, unnatural enantiomers: w794, 37° C., 72 hours (FIG. 13); for concentration of detectable DNA alkylation, natural enantiomers: w794, 25° C., 24 hours (FIG. 17). On the procedure: FIG. 13 illustrates thermally-induced strand cleavage of double-stranded DNA (SV40 DNA fragment, 144 bp, nucleotide no. 5238-138, clone w794) after 72 hours incubation of agent-DNA at 37° C. followed by removal of unbound agent and 30 minutes incubation at 100° C.; 8% denaturing PAGE and autoradiography. Lane 1, control DNA; lanes 2-4, (-)-MCBI-TMI (254, 1×10^-5 to 1×10^-7 M); lanes 5-7, (-)-duocarmycin SA (2, 1×10^-5 to 1×10^-7 M); lanes 8-11, Sanger G, C, A and T reactions; lanes 12-14, (-)-CC-1065 (1, 1×10^-5 to 1×10^-7 M); lanes 15-17, (-)-MCBI-CDPI2 (266, 1×10^-5 to 1×10^-7 M); lanes 18-20, (-)-MCBI-CDPI1 (262, 1×10^-5 to 1×10^-7 M); lanes 21-23 (-)-MCBI-indole2 (258, 1×10^-5 to 1×10^-7 M).
As indicated, the DNA-agent incubation was conducted at 37° C. for 24 or 48 hours, followed by removal of unbound agent and 30 minutes incubation at 100° C.; 8% denaturing PAGE and autoradiography.
FIG. 17 illustrates thermally-induced strand cleavage of double-stranded DNA (SV40 DNA fragment, 144 bp, nucleotide no. 5238-138, clone w794) after 24 hours incubation of agent-DNA at 25° C. followed by removal of unbound agent and 30 minutes incubation at 100° C; 8% denaturing PAGE and autoradiography. Lane 1, control DNA; lanes 2-4, (+)-duocarmycin SA (2, 1×10^-5 to 1×10^-7 M); lanes 5-7, (+)-MCBI-TMI (254, 1×10^-5 to 1×10^-7 M); lanes 8-11, Sanger G, C, A and T reactions; lanes 12-14, (+)-CC-1065 (1, 1×10^-5 to 1×10^-7 M); lanes 15-17, (+)-MCBI-indole2 (258, 1×10^-5 to 1×10^-7 M); lanes 18-20, (+)-MCBI-CDPI2 (266, 1×10^-5 to 1×10^-7 M).
The DNA alkylation properties of the agents were examined within four 150 base-pair segments of duplex DNA for which comparative results are available for related agents. Four clones of phage M13mp10 were selected for study and contain the SV40 nucleosomal DNA inserts w794 (nucleotide no. 5238-138) and its complement w836 (nucleotide no. 5189-91) and c988 (nucleotide no. 4359-4210) and its complement c820 (nucleotide no. 4201-4356). The alkylation site identification and the assessment of the relative selectivity among the available sites were obtained by thermally-induced strand cleavage of the singly 5'end-labeled duplex DNA after exposure to the agents. Following treatment of the end-labeled duplex DNA with a range of agent concentrations, the unbound agent was removed by EtOH precipitation of the DNA. Redissolution of the DNA in aqueous buffer, thermolysis (100° C., 30 minutes) to induce strand cleavage at the sites of DNA alkylation, denaturing high resolution polyacrylamide gel electrophoresis (PAGE) adjacent to Sanger dideoxynucleotide sequencing standards, and autoradiography led to identification of the DNA cleavage and alkylation sites. The full details of this procedure have been disclosed and discussed elsewhere (10). The DNA alkylation reaction selectivities observed under the incubation conditions of 25° C. (24 hours) for the agents detailed herein have proven identical to the alkylation selectivities observed with shorter or extended reaction periods or when the reactions were conducted at different temperatures (37 or 4° C., 0.5-7 days). As discussed below, the rates and efficiencies but not final relative efficiencies of DNA alkylation were altered by changing the reaction temperatures.

Series [3] relates to L1210. Description: In vitro cytotoxic activity. Format: cell-based. The conditions noted are these: for cytotoxic potency of natural enantiomer relative to unnatural enantiomer: fold, natural more potent than unnatural; for enantiomer distinction (in words): natural vs unnatural enantiomer; for cytotoxic activity of seco precursor vs cyclopropane containing agent: seco precursors.

Series [4] in a line: Solvolysis reactivity (UV), aqueous buffer-CH3OH. Format: physicochemical. On the procedure: The solvolysis was followed spectrophotometrically by UV with the disappearance of the long-wavelength absorption band of the MCBI chromophore ([…]) and with the appearance of a short-wavelength absorption band (266 nm) attributable to seco-N-BOC-MCBI (FIG. 9).
N-BOC-MCBI (238, 0.1 mg) was dissolved in CH3 OH (1.5 mL) and mixed with pH 3 aqueous buffer (1.5 mL). The buffer contained 4:1:20 (v:v:v) 0.1 M citric acid, 0.2 M Na2 HPO4, and H2 O, respectively. The solvolysis solution was sealed and kept at 25° C. protected from light. The UV spectrum was measured at regular intervals every 2 hours during the first day, every 12 hours for another week, and every 24 hours for an additional week. The decrease in the long-wavelength absorption at 324 nm and the increase in the short-wavelength absorption at 266 nm were monitored, FIG. 1.
Similarly, MCBI (240, 0.1 mg) was dissolved in CH3 OH (1.5 mL) and mixed with […] (1.5 mL). The solvolysis solution was sealed and stirred at 25° C. in the dark. The UV spectrum was recorded every 24 hours for two months. The decrease in the long-wavelength absorption at 340 nm and the increase in absorption at 268 nm were monitored, FIG. 1.

Entries after “also recorded” stand apart in the source; their conditions may differ.

As for `Cc1c[nH]c2c1C13CC1CN(C(=O)OC(C)(C)C)C3=CC2=O` (stereo not drawn) [N-BOC-CPI], the “solvolysis half-life t1/2 of comparison agents” value in series [1] is 1.53 days. For `COc1ccc2c(c1)[C@]13C[C@H]1CN(C(=O)c1cc4c5c(ccc4[nH]1)N(C(N)=O)CC5)C3=CC2=O` [(-)-MCBI-CDPI1], the “selectivity and efficiency of DNA alkylation, unnatural enantiomers compared” value in series [2] (37° C.) is recorded as “nearly indistinguishable”.

For the molecule `COc1ccc2c(c1)C13CC1CN(C(=O)c1cc4c5c(ccc4[nH]1)N(C(=O)c1cc4c6c(ccc4[nH]1)N(C(N)=O)CC6)CC5)C3=CC2=O` (stereo not drawn) [Compound 266], in series [3], the “cytotoxic potency of natural enantiomer relative to unnatural enantiomer” value is reported as 1-3 × and the “enantiomer distinction (in words)” value is recorded as “essentially indistinguishable”. Moreover, the “enantiomer distinction (in words)” value in series [3] (listed as MCBI-CDPI2) is on record as “nearly equipotent”. Further, the “concentration of detectable DNA alkylation, unnatural enantiomers” value in series [2] is on record as 10^-6 to 10^-7 M. Take `COc1ccc2c(O)cc3c(c2c1)C(CCl)CN3C(=O)c1cc2c3c(ccc2[nH]1)N(C(=O)c1cc2c4c(ccc2[nH]1)N(C(N)=O)CC4)CC3` (stereo not drawn) [Compound 264]: in series [3], the “cytotoxic activity of seco precursor vs cyclopropane containing agent” value is on record as “indistinguishable”.

For `COc1ccc2c(c1)C13CC1CNC3=CC2=O` (stereo not drawn) [Compound 240, 7-Methoxy-1,2,9,9a-tetrahydrocyclopropa[c]benz[e]indol-4-one], the “acceleration of rate of solvolysis by C7 methoxy group vs. corresponding CBI agent” value in series [4] (acid-catalyzed solvolysis, pH 3) turned out to be 1.6 ×. Also, in series [4] (pH 3, 50% CH3OH-buffer, 25° C.), the “solvolysis rate constant k” value was 5.76e-07 s⁻¹. Besides, the half-life in series [4] (pH 3, 50% CH3OH-buffer, 25° C., read-out: solvolysis half-life t1/2 (converted)) was 13.9 days. Further, the “solvolysis reactivity relative to DSA” value in series [4] (pH 3, more reactive than DSA) was 6-7 ×. In addition, the “relative solvolysis reactivity (in words)” value in series [4] (pH 3, vs. agent named) was “only slightly more reactive than CBI; also recorded: less reactive than CPI”. Take `COc1ccc2c(c1)C13CC1CN(C(=O)c1cc4cc(NC(=O)c5cc6ccccc6[nH]5)ccc4[nH]1)C3=CC2=O` (stereo not drawn) [Compound 258]: in series [3], the “cytotoxic potency of natural enantiomer relative to unnatural enantiomer” value is reported as 1-3 × and the “enantiomer distinction (in words)” value is listed as “nearly equipotent”. Moreover, in series [2], the “concentration of detectable DNA alkylation, unnatural enantiomers” value is 10^-6 to 10^-7 M. For `O=C1C=C2NCC3CC23c2ccccc21` (stereo not drawn) [CBI, 1,2,9,9a-tetrahydrocyclopropa[c]benz[e]indol-4-one], in series [1], the “solvolysis half-life t1/2 of comparison agents” value is 38.8 days and the “solvolysis rate constant k of comparison agents” value was 2.07e-07 s⁻¹.

For `COc1ccc2c(c1)[C@]13C[C@H]1CN(C(=O)c1cc4c5c(ccc4[nH]1)N(C(=O)c1cc4c6c(ccc4[nH]1)N(C(N)=O)CC6)CC5)C3=CC2=O` [(-)-MCBI-CDPI2], the “selectivity and efficiency of DNA alkylation, unnatural enantiomers compared” value in series [2] (37° C.) was “nearly indistinguishable”. `COc1ccc2c(O)cc3c(c2c1)C(CCl)CN3C(=O)OC(C)(C)C` (stereo not drawn) [Compound 236, 3-(tert-Butyloxycarbonyl)-1-(chloromethyl)-5-hydroxy-8-methoxy-1,2-dihydro-3H-benz[e]indole]: the “cytotoxic activity of seco precursor vs cyclopropane containing agent” value in series [3] is listed as “indistinguishable”. On to `COc1ccc2c(c1)[C@]13C[C@H]1CN(C(=O)c1cc4cc(NC(=O)c5cc6ccccc6[nH]5)ccc4[nH]1)C3=CC2=O` [(-)-MCBI-indole2], for which the “selectivity and efficiency of DNA alkylation, unnatural enantiomers compared” value in series [2] (37° C.) was “nearly indistinguishable”.

`COc1ccc2c(O)cc3c(c2c1)C(CCl)CN3C(=O)c1cc2cc(OC)c(OC)c(OC)c2[nH]1` (stereo not drawn) [Compound 252]: the “cytotoxic activity of seco precursor vs cyclopropane containing agent” value in series [3] is “indistinguishable”.

In the case of `COC(=O)c1cc2c([nH]1)C(=O)C=C1N(C(=O)c3cc4cc(OC)c(OC)c(OC)c4[nH]3)CC3CC123` (single isomer, unassigned) [ent-(-)-duocarmycin SA, reference compound], the “selectivity and efficiency of DNA alkylation, unnatural enantiomers compared” value in series [2] (37° C.) is listed as “slightly more effective”. For `CC(C)(C)OC(=O)N1CC2CC23C1=CC(=O)c1ccccc13` (stereo not drawn) [N-BOC-CBI], the “solvolysis half-life t1/2 of comparison agents” value in series [1] was 5.54 days. As to `COc1ccc2c(c1)[C@@]13C[C@@H]1CN(C(=O)c1cc4c5c(ccc4[nH]1)N(C(=O)c1cc4c6c(ccc4[nH]1)N(C(N)=O)CC6)CC5)C3=CC2=O` [(+)-MCBI-CDPI2], in series [2] (25° C., 24 hours, 254 vs 2, 266 vs 1), the “selectivity and efficiency of DNA alkylation, natural enantiomers compared” value is reported as “essentially indistinguishable”. For the same molecule, the “concentration of detectable DNA alkylation, natural enantiomers” value in series [2] was 10^-7 M. Consider `NC(=O)N1CCc2c1ccc1[nH]c(C(=O)N3CCc4c3ccc3[nH]c(C(=O)N5CC6CC67C5=CC(=O)c5ccccc57)cc43)cc21` (stereo not drawn) [CBI-CDPI2, reference compound], for which, in series [3], the “enantiomer distinction (in words)” value is on record as “comparable potencies”. For `COc1ccc2c(c1)[C@]13C[C@H]1CN(C(=O)c1cc4cc(OC)c(OC)c(OC)c4[nH]1)C3=CC2=O` [(-)-MCBI-TMI], in series [2] (37° C.), the “selectivity and efficiency of DNA alkylation, unnatural enantiomers compared” value was “nearly indistinguishable”. As to `COc1ccc2c(c1)[C@@]13C[C@@H]1CN(C(=O)c1cc4cc(NC(=O)c5cc6ccccc6[nH]5)ccc4[nH]1)C3=CC2=O` [(+)-MCBI-indole2], the “concentration of detectable DNA alkylation, natural enantiomers” value in series [2] was 10^-7 M. Consider `COc1ccc2c(c1)[C@@]13C[C@@H]1CN(C(=O)OC(C)(C)C)C3=CC2=O` [(+)-N-BOC-MCBI, N-(tert-Butyloxycarbonyl)-7-methoxy-1,2,9,9a-tetrahydrocyclopropa[c]benz[e]indol-4-one], for which the “enantiomer distinction (in words)” value in series [3] was “more potent activity”. The “relative efficiency of DNA alkylation, natural/unnatural enantiomer” value in series [2] ((+)-N-BOC-MCBI/ent-(-)-N-BOC-MCBI, 37° C.) is listed as 1-2 ×. For the molecule `COc1c(O)c2c(c3cc(C(=O)N4CCc5c4c(O)c(OC)c4[nH]c(C(=O)N6CC7CC78C6=CC(=O)c6[nH]cc(C)c68)cc54)[nH]c13)CCN2C(N)=O` (stereo not drawn) [ent-(-)-CC-1065, reference compound], the “selectivity and efficiency of DNA alkylation, unnatural enantiomers compared” value in series [2] (37° C.) is reported as “nearly indistinguishable”. With `COc1ccc2c(O)cc3c(c2c1)C(CCl)CN3C(=O)c1cc2cc(NC(=O)c3cc4ccccc4[nH]3)ccc2[nH]1` (stereo not drawn) [Compound 256], the “cytotoxic activity of seco precursor vs cyclopropane containing agent” value in series [3] is on record as “indistinguishable”. Take `COc1ccc2c(O)cc3c(c2c1)C(CCl)CN3C(=O)c1cc2c3c(ccc2[nH]1)N(C(N)=O)CC3` (stereo not drawn) [Compound 260]: in series [3], the “cytotoxic activity of seco precursor vs cyclopropane containing agent” value is “indistinguishable”.
